From the OPERA property sets (Mansouri et al. 2018)
Values after ≈ are worked out from the molar mass of the structure shown.

Conditions: for solubility: 25 °C

| SMILES | solubility [µM] | logP |
| --- | --- | --- |
| COc1c(Cl)c(Cl)cc(Cl)c1Cl | 7.4 (≈ 1.82 µg/mL) |  |
| COc1cccc(Cl)c1Cl | 491 (≈ 86.9 µg/mL) | 3.24 |
| COc1ccc(Cl)c(Cl)c1Cl | 51.1 (≈ 10.8 µg/mL) |  |
| COc1cc(Cl)c(Cl)c(Cl)c1OC | 42.6 (≈ 10.3 µg/mL) | 4.01 |
| COc1cc(Cl)c(Cl)c(Cl)c1Cl | 5.49 (≈ 1.35 µg/mL) |  |
| COc1cccc(Cl)c1 | 1650 (≈ 235 µg/mL) |  |
| COc1c(Cl)c(Cl)c(Cl)c(Cl)c1OC | 5.76 (≈ 1.59 µg/mL) | 4.86 |
| COc1c(Cl)cccc1Cl | 791 (≈ 140 µg/mL) | 3.14 |
| COc1cc(Cl)c(Cl)cc1OC | 348 (≈ 72 µg/mL) | 3.11 |
